Values of other authors, collected in patent US20080161402A1, “Targeting the Reverse Mode of the Na+/Ca2+ Exchanger For the Treatment of Neurodegenerative Conditions” (ALLERGAN, INC., priority 2004, published 2008).

System: Na+/Ca2+ exchanger
Details: variety of cell types including neurons; reverse vs forward mode

CS(=O)(=O)O.N=C(N)SCCc1ccc(OCc2ccc([N+](=O)[O-])cc2)cc1 [KB-R743, 2-[2-[4-(4-nitorbenzyloxy)phenyl]ethyl]isothiourea methanesulfonte]
mode selectivity of Na+/Ca2+ exchanger block: preferentially block the reverse mode
